Tests used:
[1] = target: Metabotropic glutamate receptor 1 (Rattus norvegicus, UniProt P23385); experiment: Antagonist activity at rat mGluR1 expressed in 1321N1 cells; format: functional, cell-based
[2] = target: Metabotropic glutamate receptor 5 (Rattus norvegicus, UniProt P31424); experiment: Antagonist activity at rat mGluR5 expressed in 1321N1 cells; format: functional, cell-based
Rattus norvegicus [3] = experiment: Efficacy in rat Chung spinal nerve L5/L6 ligation pain model after 30 mins at 100 umol/kg, ip; format: functional
Rattus norvegicus [4] = experiment: Efficacy in ip dosed rat Chung spinal nerve L5/L6 ligation pain model after 30 mins; format: functional; conditions: 0.5 h
Rattus norvegicus [5] = experiment: Drug level in rat brain at 30 umol/kg, ip; format: ADME, organism-based; conditions: in vivo
Rattus norvegicus [6] = species: Rattus norvegicus; experiment: Free drug level in rat brain; format: ADME, organism-based; conditions: in vivo
Rattus norvegicus [7] = species: Rattus norvegicus; experiment: Protein binding in rat brain; format: ADME, organism-based; conditions: in vivo
Rattus norvegicus [8] = experiment: Efficacy in ip dosed rat osteoarthritic pain model after 30 mins; format: functional; conditions: 0.5 h
Rattus norvegicus [9] = experiment: Activity in ip dosed rat locomotor model; format: functional
Rattus norvegicus [10] = experiment: Activity in ip dosed rat Rotarod model; format: functional
[11] = target: Metabotropic glutamate receptor 2 (Homo sapiens, UniProt Q14416); experiment: Antagonist activity at human mGluR2 expressed in 1321N1 cells; format: functional, cell-based
Chain of Metabotropic glutamate receptor 2 (Q14416 whole entry): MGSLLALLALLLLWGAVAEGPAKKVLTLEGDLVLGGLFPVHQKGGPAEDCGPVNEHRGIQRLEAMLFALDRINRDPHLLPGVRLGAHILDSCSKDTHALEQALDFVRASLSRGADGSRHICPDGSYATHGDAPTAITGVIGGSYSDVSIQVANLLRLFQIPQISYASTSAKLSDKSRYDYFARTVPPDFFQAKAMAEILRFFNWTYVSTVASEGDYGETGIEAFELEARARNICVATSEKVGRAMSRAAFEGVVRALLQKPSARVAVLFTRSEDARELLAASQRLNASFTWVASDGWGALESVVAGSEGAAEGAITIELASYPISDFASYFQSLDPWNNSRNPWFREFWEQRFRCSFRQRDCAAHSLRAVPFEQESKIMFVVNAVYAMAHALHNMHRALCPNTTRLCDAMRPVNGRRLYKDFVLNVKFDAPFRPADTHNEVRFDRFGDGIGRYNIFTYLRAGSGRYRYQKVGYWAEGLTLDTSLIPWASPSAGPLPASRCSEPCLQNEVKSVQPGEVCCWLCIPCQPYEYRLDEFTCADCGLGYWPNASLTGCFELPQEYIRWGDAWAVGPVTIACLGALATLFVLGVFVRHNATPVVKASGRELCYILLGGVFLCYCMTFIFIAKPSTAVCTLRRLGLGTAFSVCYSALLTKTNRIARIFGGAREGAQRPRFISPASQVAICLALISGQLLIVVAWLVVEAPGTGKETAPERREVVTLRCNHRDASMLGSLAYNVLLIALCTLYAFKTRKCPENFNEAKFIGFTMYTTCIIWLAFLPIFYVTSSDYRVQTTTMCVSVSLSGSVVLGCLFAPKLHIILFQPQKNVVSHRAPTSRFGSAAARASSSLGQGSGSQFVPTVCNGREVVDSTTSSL

[12] = target: Metabotropic glutamate receptor 4 (Homo sapiens, UniProt Q14833); experiment: Antagonist activity at human mGluR4 expressed in 1321N1 cells; format: functional, cell-based
Chain of Metabotropic glutamate receptor 4 (Q14833 whole entry): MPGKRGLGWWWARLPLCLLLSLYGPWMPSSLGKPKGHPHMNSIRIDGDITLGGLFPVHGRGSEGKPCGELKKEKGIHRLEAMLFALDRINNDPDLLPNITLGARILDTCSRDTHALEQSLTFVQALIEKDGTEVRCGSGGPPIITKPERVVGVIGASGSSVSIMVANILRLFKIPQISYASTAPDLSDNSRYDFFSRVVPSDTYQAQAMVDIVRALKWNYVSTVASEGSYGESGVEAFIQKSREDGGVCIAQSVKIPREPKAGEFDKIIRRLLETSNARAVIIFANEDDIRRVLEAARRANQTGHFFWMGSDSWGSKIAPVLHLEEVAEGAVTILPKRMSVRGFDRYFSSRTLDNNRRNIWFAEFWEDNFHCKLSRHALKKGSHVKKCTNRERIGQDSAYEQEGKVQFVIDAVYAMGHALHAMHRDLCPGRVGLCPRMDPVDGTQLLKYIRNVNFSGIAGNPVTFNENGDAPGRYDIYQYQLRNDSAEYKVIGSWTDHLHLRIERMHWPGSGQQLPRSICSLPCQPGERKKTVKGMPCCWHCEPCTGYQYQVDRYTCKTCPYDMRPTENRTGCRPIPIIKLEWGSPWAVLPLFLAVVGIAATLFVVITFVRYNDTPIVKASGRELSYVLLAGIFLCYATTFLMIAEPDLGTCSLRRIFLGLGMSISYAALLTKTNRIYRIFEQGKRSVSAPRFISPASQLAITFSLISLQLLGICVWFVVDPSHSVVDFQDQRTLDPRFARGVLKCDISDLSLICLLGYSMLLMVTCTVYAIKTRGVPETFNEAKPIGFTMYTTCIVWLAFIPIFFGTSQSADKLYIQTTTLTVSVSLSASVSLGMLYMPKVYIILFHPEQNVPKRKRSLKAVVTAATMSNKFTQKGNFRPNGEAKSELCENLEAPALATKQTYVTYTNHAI

[13] = target: Metabotropic glutamate receptor 7 (Homo sapiens, UniProt Q14831); experiment: Antagonist activity at human mGluR7 expressed in 1321N1 cells; format: functional, cell-based
Chain of Metabotropic glutamate receptor 7 (Q14831 whole entry): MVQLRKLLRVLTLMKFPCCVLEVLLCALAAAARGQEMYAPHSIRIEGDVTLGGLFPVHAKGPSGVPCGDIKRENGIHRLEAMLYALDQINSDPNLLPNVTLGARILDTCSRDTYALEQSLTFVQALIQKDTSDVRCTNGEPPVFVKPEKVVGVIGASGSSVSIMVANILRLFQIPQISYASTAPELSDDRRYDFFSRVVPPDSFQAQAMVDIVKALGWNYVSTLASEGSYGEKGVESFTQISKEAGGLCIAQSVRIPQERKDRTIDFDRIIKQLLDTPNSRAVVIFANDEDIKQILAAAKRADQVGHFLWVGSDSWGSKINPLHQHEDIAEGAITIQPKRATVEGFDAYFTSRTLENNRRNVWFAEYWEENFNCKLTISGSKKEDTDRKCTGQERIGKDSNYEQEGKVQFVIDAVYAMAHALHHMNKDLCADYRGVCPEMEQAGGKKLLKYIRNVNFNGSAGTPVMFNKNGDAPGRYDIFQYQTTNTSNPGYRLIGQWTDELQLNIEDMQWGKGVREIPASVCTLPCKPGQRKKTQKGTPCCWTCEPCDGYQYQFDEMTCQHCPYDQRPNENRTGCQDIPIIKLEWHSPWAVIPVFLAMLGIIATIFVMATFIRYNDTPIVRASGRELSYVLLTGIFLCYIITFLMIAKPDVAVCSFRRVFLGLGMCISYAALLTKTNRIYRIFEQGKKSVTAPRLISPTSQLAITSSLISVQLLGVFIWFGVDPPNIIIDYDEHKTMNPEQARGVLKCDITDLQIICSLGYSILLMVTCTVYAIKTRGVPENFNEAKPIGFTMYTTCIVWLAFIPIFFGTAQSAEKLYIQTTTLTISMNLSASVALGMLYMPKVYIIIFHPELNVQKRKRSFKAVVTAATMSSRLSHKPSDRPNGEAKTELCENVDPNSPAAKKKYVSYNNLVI

Rattus norvegicus [14] = experiment: Efficacy in ip dosed rat CFA model after 30 mins; format: functional; conditions: 0.5 h
Rattus norvegicus [15] = experiment: Efficacy in ip dosed rat Carrageenan model after 30 mins; format: functional; conditions: 0.5 h
Rattus norvegicus [16] = experiment: Efficacy in ip dosed rat skin incision model after 30 mins; format: functional; conditions: 0.5 h
Rattus norvegicus [17] = experiment: Efficacy in ip dosed rat formalin model after 30 mins; format: functional; conditions: 0.5 h

Chain of Metabotropic glutamate receptor 1 (P23385 whole entry): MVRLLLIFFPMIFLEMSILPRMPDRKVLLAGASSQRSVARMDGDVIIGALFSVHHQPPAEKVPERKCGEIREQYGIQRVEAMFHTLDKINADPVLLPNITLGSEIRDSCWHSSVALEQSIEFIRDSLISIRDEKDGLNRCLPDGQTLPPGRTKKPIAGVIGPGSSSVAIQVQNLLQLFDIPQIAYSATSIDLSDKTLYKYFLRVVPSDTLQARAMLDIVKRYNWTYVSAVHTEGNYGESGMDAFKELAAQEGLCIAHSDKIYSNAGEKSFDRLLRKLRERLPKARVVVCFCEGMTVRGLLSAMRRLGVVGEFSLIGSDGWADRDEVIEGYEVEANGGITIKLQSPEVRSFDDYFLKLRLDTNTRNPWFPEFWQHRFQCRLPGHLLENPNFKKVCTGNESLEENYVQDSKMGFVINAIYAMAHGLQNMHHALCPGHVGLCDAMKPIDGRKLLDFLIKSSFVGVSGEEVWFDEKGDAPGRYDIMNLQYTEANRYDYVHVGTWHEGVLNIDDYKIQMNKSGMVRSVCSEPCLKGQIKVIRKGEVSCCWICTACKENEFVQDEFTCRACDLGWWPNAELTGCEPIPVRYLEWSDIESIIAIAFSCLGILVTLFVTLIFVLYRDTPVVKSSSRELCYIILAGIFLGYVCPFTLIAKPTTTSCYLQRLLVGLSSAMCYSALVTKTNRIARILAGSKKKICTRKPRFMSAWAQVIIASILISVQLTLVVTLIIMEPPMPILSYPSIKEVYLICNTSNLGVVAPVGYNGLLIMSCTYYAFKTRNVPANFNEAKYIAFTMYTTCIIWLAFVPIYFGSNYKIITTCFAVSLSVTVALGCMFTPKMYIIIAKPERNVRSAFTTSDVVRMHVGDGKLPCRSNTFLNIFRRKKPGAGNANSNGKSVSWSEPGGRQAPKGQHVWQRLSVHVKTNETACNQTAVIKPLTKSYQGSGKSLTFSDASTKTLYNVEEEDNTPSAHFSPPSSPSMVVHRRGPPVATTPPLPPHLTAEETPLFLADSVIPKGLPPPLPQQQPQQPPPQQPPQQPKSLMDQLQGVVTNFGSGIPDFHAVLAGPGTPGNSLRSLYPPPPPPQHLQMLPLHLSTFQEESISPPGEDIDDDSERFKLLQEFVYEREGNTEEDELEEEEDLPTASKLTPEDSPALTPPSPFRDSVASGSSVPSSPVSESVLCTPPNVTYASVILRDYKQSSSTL
Chain of Metabotropic glutamate receptor 5 (P31424 whole entry): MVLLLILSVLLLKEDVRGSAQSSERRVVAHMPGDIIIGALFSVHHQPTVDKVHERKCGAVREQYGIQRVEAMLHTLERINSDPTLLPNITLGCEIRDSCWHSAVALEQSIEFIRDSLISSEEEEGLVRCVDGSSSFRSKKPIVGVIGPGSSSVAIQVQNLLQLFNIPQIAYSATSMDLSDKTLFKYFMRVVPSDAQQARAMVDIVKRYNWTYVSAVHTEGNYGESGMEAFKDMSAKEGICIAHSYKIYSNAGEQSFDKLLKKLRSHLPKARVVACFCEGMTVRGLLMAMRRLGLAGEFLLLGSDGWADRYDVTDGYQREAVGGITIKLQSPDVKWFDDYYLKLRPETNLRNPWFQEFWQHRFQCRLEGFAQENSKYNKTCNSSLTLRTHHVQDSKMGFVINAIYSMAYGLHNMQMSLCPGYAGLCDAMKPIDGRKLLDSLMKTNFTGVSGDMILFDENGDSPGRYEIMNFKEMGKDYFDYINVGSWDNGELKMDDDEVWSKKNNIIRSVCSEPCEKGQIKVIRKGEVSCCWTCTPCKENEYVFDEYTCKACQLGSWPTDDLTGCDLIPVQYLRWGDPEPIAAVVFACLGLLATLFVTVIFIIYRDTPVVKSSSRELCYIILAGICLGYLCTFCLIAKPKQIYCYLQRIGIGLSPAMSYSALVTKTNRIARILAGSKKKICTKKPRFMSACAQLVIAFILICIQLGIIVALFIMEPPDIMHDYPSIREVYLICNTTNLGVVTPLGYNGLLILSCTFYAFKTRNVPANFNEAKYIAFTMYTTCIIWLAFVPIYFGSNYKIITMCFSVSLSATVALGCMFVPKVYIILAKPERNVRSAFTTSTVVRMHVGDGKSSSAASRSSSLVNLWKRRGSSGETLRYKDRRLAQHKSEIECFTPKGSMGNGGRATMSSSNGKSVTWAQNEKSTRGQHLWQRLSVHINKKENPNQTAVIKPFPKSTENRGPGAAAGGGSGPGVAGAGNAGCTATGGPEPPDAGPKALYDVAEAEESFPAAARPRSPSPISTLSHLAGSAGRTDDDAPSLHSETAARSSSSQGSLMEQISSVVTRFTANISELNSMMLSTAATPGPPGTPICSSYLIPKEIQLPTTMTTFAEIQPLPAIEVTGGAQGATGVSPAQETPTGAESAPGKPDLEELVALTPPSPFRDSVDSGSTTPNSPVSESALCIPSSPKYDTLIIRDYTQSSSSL

Row | IC50 [1] [nM] | IC50 [2] [nM] | Activity (Rattus norvegicus [5]) [ng/g] | Activity (Rattus norvegicus [6]) [ng/g] | Activity (Rattus norvegicus [7]) [%] | IC50 [11] [nM] | IC50 [12] [nM] | IC50 [13] [nM] | Compound | Efficacy (Rattus norvegicus [3]) [%] | ED50 (Rattus norvegicus [4]) [µmol/kg] | ED50 (Rattus norvegicus [8]) [µmol/kg] | ED50 (Rattus norvegicus [9]) [µmol/kg] | ED50 (Rattus norvegicus [10]) [µmol/kg] | ED50 (Rattus norvegicus [14]) [µmol/kg] | ED50 (Rattus norvegicus [15]) [µmol/kg] | ED50 (Rattus norvegicus [16]) [µmol/kg] | ED50 (Rattus norvegicus [17]) [µmol/kg]
1 | 52 | > 10000 |  |  |  |  |  |  | CCc1ccc(-n2cnc3c(sc4nccc(N(C)CCc5ccccn5)c43)c2=O)cc1 | 11 |  |  |  |  |  |  |  | 
2 | 21 | > 10000 | 125 | 0.13 | 99.9 |  |  |  | Cc1ccc(-n2cnc3c(sc4cncc(N(C)C)c43)c2=O)cc1F | 72 | 55 |  |  |  |  |  |  | 
3 | 5 | 1330 | 1180 | 25.5 | 97.8 | > 10000 | > 10000 | > 10000 | CCc1ccc(-n2cnc3c(sc4nccc(N(C)C)c43)c2=O)cc1 | 41 | > 100 | 29 | > 100 | > 300 | 15 | 11 | 47 | 19
4 | 33 | > 10000 |  |  |  |  |  |  | C[N+](C)([O-])c1ccnc2sc3c(=O)n(N4CCCCCC4)cnc3c12 | 12 |  |  |  |  |  |  |  | 
5 | 1 | > 10000 | 851 |  |  |  |  |  | CN(C)c1ccnc2sc3c(=O)n(N4CCCCCC4)cnc3c12 | 100 | 22 |  |  |  |  |  |  | 

From ChEMBL document CHEMBL1137234, “Correlation between brain/plasma ratios and efficacy in neuropathic pain models of selective metabotropic glutamate receptor 1 antagonists” (Bioorg Med Chem Lett, 2006)
